Assay results reported in article PMC5854716, “Synthesis, molecular docking, ctDNA interaction, DFT calculation and evaluation of antiproliferative and anti-Toxoplasma gondii activities of 2,4-diaminotriazine-thiazole derivatives” (Medicinal Chemistry Research, 2018).
In brackets after ≈: the same amount, converted by molar mass.

Columns and labels:
[1] = test system: Toxoplasma gondii BK strain; test: T. gondii tachyzoite intracellular proliferation in VERO host cells ([3H]uracil incorporation); assay type: cell-based; details: VERO host cells; for activity at 0.9 µg/mL / activity at 1.8 µg/mL / activity at 3.9 µg/mL / activity at 7.8 µg/mL / activity at 15.6 µg/mL / activity at 31.2 µg/mL / activity at 62.5 µg/mL / activity at 125 µg/mL / IC50: Toxoplasma gondii; for IC50 / IC50 (50% inhibition of T. gondii proliferation in vitro): GraphPad Prism curves; for IC50: read-out: IC50 (50% inhibition of T. gondii proliferation in vitro)
In short: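 VERO monolayers (2 × 10^4 cells/well) infected with 2 × 10^5 T. gondii tachyzoites/well in medium containing compounds at 0.9–125.00 μg/ml, with sulfadiazine at 5.0–2500.0 μg/ml as control, for 48 h at 37 °C. Growth measured by [3H]uracil incorporation over a further 18–20 h by scintillation counting, with host-cell-only cpm subtracted.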

mouse L929 fibroblast = test: Cell viability assay (MTT), L929; assay type: cell-based; details: 24 h; for CC30 L929: concentration for 30% proliferation inhibition
Protocol: (§1) The epithelial cell line VERO (ATCC-Catalog No. CCL-81^TM), derived from the kidney of the African green monkey, Cercopithecus aethiops and fibroblast cell line L-929 (ATCC-Catalog No. CCL-1^TM), derived from Mus musculus (http://www.atcc.org) were grown in Iscoves’s Modified Dulbecco’s Medium (IMDM) supplemented with 10% (v/v) fetal bovine serum (FBS), plus 2 mM L-glutamine, 100 U/ml penicillin, 100.00 µg/ml streptomycin, 5 × 10^−5 M 2-mercaptoethanol and maintained at 37 °C in a 10% CO2 atmosphere. Subcultures were performed via enzymatic cell dissociation in 0.25% trypsin. After dissociation, the cells were placed in culture medium at 4 °C with 10% FBS to inhibit the action of trypsin. The isolated cells were centrifuged for 10 min at 1000×g at 4 °C, and the cells were grown in new bottles. This procedure was repeated when cells reached a confluence of ~90%. All commercial reactants and solvents were purchased from either Sigma-Aldrich Laborchemikalien GmbH (Dzitko et al. [2014]).
(§2) Suspensions of the compounds 4a–l were freshly prepared (5 mg/ml DMSO) before the cells were exposed, and diluted to appropriate concentrations; 0.9, 1.8, 3.9, 7.8, 15.6, 31.2, 62.5, and 125.00 μg/ml with the culture medium. Cells treated with 2.5% DMSO-solvent served as a control in each experiment.
(§3) The effects of tested compounds on the viability of mouse fibroblasts L929 and […] VERO cells were evaluated using the MTT assay. The MTT assay was used according to international standards: ISO 10993-5:2009 (Tests for in vitro cytotoxicity; http://www.iso.org/iso/catalogue_detail.htm? csnumber = 36406). L929 and VERO cells were plated into 96-well plates at a density of 1.0 × 10^4/100 μl/well in culture medium and allowed to attach for 24 h before treatment. Afterwards, culture medium in the plates was replaced by 100 μl compounds suspension at concentration of 0–125 μg/ml and the cells were exposed for 24 h. Then 1 mg/ml MTT (50 μl/well) was added to each well and incubated at 37 °C, 10 % CO2 for 2 h. Mitochondrial dehydrogenases of viable cells reduce the yellowish water-soluble MTT to water-insoluble formazan crystals, which were solubilized with dimethyl sulfoxide (DMSO). The cell culture medium was aspirated cautiously, after which 150 μl DMSO was added to each well and mixed thoroughly. Optical density (OD) was read on the ELISA reader (Multiskan EX, Labsystems; http://www.mtxlsi.com/multiskan_EX.htm) at 550 nm. The results were expressed as percentage viability compared with the treated 2.5% DMSO controls. All experiments were performed in triplicate.

VERO cells = test: Cell viability assay (MTT), VERO; assay type: cell-based, Cercopithecus aethiops; details: 24 h; for CC30 VERO: concentration for 30% proliferation inhibition
Protocol: as §1, §2, §3

SMILES | activity at 0.9 µg/mL ([1]; 0.9 µg/ml) [%] | activity at 1.8 µg/mL ([1]; 1.8 µg/ml) [%] | activity at 3.9 µg/mL ([1]; 3.9 µg/ml) [%] | activity at 7.8 µg/mL ([1]; 7.8 µg/ml) [%] | activity at 15.6 µg/mL ([1]; 15.6 µg/ml) [%] | activity at 31.2 µg/mL ([1]; 31.2 µg/ml) [%] | activity at 62.5 µg/mL ([1]; 62.5 µg/ml) [%] | activity at 125 µg/mL ([1]; 125.0 µg/ml) [%] | IC50 [1] [µg/mL] | CC30 L929 (mouse L929 fibroblast) [µg/mL] | CC30 VERO (VERO cells) [µg/mL] | T. gondii intracellular proliferation ([1]; 0.9 µg/ml) [%] | T. gondii intracellular proliferation ([1]; 1.8 µg/ml) [%] | T. gondii intracellular proliferation ([1]; 3.9 µg/ml) [%] | T. gondii intracellular proliferation ([1]; 7.8 µg/ml) [%] | T. gondii intracellular proliferation ([1]; 15.6 µg/ml) [%] | T. gondii intracellular proliferation ([1]; 31.2 µg/ml) [%] | T. gondii intracellular proliferation ([1]; 62.5 µg/ml) [%] | IC50 (50% inhibition of T. gondii proliferation in vitro) [1] [µg/mL] | Viability L929 (mouse L929 fibroblast; 0.9 µg/ml) [%] | other results
C/C(=N\Nc1nc(-c2ccc([N+](=O)[O-])cc2)cs1)c1ccc(Nc2nc(N)nc(N)n2)cc1 [Compound 4h, (E)-N^2-(4-(1-(2-(4-(4-nitrophenyl)-1,3-thiazol-2-yl)hydrazinylidene)ethyl)phenyl)-1,3,5-triazine-2,4,6-triamine] | 103 | 105 | 113 | 101 | 85.7 | 77.5 | 74 | 39.4 | 119 (≈ 257 µM) | >125.0 | >125.0 |  |  |  |  |  |  |  |  |  | 
C/C(=N\Nc1nc(-c2ccc(Cl)c(Cl)c2)cs1)c1ccc(Nc2nc(N)nc(N)n2)cc1 [Compound 4i, (E)-N^2-(4-(1-(2-(4-(3,4-dichlorophenyl)-1,3-thiazol-2-yl)hydrazinylidene)ethyl)phenyl)-1,3,5-triazine-2,4,6-triamine] | 101 | 102 | 79 | 55.9 | 45.7 | 41.1 |  |  | 14.9 (≈ 30.7 µM) | >62.5 | >62.5 |  |  |  |  |  |  |  |  |  | 
C/C(=N\Nc1nc(-c2ccc(NS(C)(=O)=O)cc2)cs1)c1ccc(Nc2nc(N)nc(N)n2)cc1 [Compound 4j, (E)-N-(4-(2-(2-(1-(4-(4,6-diamino-1,3,5-triazin-2-yloamino)phenyl)ethylidene)hydrazinyl)thiazol-4-yl)phenyl)-methanesulfonamide] |  |  |  |  |  |  |  |  |  | >125.0 | >125.0 | 99.93 | 100.25 | 99.58 | 89.65 | 78.25 | 67.01 | 46.07 | 59.87 | 98.90 | T. gondii intracellular proliferation ([1]; 125.0 µg/ml): 34.60%; Viability L929 (mouse L929 fibroblast; 1.8 µg/ml): 106.36%; Viability L929 (mouse L929 fibroblast; 3.9 µg/ml): 104.20%; Viability L929 (mouse L929 fibroblast; 7.8 µg/ml): 101.86%; Viability L929 (mouse L929 fibroblast; 15.6 µg/ml): 100.71%; Viability L929 (mouse L929 fibroblast; 31.2 µg/ml): 104.07%; Viability L929 (mouse L929 fibroblast; 62.5 µg/ml): 102.92%; Viability L929 (mouse L929 fibroblast; 125.0 µg/ml): 106.67%; Viability VERO (VERO cells; 0.9 µg/ml): 79.82%; Viability VERO (VERO cells; 1.8 µg/ml): 93.81%; Viability VERO (VERO cells; 3.9 µg/ml): 93.62%; Viability VERO (VERO cells; 7.8 µg/ml): 89.25%; Viability VERO (VERO cells; 15.6 µg/ml): 90.98%; Viability VERO (VERO cells; 31.2 µg/ml): 96.22%; Viability VERO (VERO cells; 62.5 µg/ml): 97.76%; Viability VERO (VERO cells; 125.0 µg/ml): 89.44%
C/C(=N\Nc1nc(-c2ccccc2)cs1)c1ccc(Nc2nc(N)nc(N)n2)cc1 [Compound 4k, (E)-N^2-(4-(1-(2-(4-phenyl-1,3-thiazol-2-yl)hydrazinylidene)ethyl)phenyl)-1,3,5-triazine-2,4,6-triamine] | 100 | 100 | 96.3 | 85.9 | 63.6 | 49.4 | 36.1 | 17.7 | 31.5 (≈ 75.5 µM) | >125.0 | >125.0 |  |  |  |  |  |  |  |  |  | 
C/C(=N\Nc1nc(-c2ccc3[nH]c(=O)oc3c2)cs1)c1ccc(Nc2nc(N)nc(N)n2)cc1 [Compound 4l, (E)-6-(2-(2-(1-(4-(4,6-diamino-1,3,5-triazin-2-yloamino)phenyl)ethylidene)hydrazinyl)thiazol-4-yl)-benzo[d]oxazol-2(3H)-on] |  |  |  |  |  |  |  |  |  | >62.5 | >62.5 | 99.98 | 101.25 | 106.91 | 79.89 | 56.46 | 45.15 | 20.34 | 23.09 | 103.88 | Viability L929 (mouse L929 fibroblast; 1.8 µg/ml): 109.00%; Viability L929 (mouse L929 fibroblast; 3.9 µg/ml): 103.03%; Viability L929 (mouse L929 fibroblast; 7.8 µg/ml): 101.74%; Viability L929 (mouse L929 fibroblast; 15.6 µg/ml): 105.02%; Viability L929 (mouse L929 fibroblast; 31.2 µg/ml): 105.52%; Viability L929 (mouse L929 fibroblast; 62.5 µg/ml): 108.10%; Viability VERO (VERO cells; 0.9 µg/ml): 97.13%; Viability VERO (VERO cells; 1.8 µg/ml): 87.85%; Viability VERO (VERO cells; 3.9 µg/ml): 95.16%; Viability VERO (VERO cells; 7.8 µg/ml): 91.03%; Viability VERO (VERO cells; 15.6 µg/ml): 96.08%; Viability VERO (VERO cells; 31.2 µg/ml): 95.40%; Viability VERO (VERO cells; 62.5 µg/ml): 97.33%
